Assay [1] deals with PI3 Kinase γ (Homo sapiens, UniProt P48736). The experiment in a line: Fluorescence polarization assay for PI3K (PI3 Kinase γ). The class given is biochemical. To be noted: diC8-PI(4,5)P2 substrate, 25 μM ATP, one hour at 25° C. On the technique in general: Polarisation of emitted light reports the rotation of a fluorescent probe.
The target of assay [2] is PI3 Kinase α (Homo sapiens, UniProt P42336). The experiment in a line: Fluorescence polarization assay for PI3K (PI3 Kinase α). Particulars: diC8-PI(4,5)P2 substrate, 25 μM ATP, one hour at 25° C. Type of assay: biochemical.
PI3 Kinase α, sequence (P42336 whole entry): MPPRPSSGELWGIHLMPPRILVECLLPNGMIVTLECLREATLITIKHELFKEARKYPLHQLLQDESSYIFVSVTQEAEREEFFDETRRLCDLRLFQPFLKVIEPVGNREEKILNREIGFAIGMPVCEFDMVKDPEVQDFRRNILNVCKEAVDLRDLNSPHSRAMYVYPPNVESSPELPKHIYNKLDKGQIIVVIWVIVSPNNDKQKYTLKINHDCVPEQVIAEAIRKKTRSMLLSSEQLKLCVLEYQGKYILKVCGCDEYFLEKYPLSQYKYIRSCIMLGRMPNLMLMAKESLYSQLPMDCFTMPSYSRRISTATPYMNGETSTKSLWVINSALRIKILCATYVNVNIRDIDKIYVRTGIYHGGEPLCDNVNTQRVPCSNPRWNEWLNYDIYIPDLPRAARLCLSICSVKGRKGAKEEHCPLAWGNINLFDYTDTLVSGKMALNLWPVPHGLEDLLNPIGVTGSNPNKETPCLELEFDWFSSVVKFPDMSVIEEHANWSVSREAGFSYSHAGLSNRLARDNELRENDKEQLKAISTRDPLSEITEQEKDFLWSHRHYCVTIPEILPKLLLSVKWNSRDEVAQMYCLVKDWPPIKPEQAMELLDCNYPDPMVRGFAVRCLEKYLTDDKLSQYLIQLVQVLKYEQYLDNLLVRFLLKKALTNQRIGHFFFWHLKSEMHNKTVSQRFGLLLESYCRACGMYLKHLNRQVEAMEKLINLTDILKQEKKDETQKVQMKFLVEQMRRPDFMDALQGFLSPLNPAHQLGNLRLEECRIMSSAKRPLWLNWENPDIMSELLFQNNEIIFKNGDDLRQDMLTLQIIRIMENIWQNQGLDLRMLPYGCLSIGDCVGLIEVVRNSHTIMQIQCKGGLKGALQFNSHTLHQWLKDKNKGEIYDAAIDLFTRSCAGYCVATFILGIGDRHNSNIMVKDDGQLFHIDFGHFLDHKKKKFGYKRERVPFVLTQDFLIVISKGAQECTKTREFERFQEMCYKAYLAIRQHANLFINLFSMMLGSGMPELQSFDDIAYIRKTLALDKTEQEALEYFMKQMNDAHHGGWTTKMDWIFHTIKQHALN
PI3 Kinase α, sequence (P27986 whole entry partner): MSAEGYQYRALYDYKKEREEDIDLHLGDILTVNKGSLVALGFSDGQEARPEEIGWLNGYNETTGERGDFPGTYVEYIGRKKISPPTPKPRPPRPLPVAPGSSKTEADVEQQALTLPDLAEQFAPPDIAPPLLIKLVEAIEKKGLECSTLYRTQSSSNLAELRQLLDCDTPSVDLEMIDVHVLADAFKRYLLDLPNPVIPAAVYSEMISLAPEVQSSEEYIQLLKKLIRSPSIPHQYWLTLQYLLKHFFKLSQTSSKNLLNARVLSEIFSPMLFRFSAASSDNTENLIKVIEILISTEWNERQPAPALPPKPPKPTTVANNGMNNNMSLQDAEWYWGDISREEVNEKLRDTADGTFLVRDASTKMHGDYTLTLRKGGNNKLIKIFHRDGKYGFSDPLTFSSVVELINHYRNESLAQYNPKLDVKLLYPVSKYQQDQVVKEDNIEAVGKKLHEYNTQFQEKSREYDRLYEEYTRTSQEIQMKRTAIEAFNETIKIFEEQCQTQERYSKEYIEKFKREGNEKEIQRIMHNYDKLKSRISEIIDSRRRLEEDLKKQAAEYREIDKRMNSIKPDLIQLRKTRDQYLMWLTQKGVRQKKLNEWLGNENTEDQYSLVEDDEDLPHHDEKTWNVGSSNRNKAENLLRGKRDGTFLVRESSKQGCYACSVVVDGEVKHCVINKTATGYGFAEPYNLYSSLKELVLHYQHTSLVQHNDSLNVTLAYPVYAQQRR
Protocol: Nunc 384 well black polypropylene fluorescent plates were used for PI3K assays. Reactions were quenched by the addition of EDTA to a final concentration of 10 μM. Final reaction volumes were 10 ml. […] Reactions were allowed to proceed for one hour at 25° C. After I hour, GST-tagged GRP1 (general receptor for phosphoinositides) PH domain fusion protein was added to a final concentration of 100 nM, and BODIPY-TMRI(1,3,4,5)P4 (Echelon) was also added to a final concentration of 5 nM. Final sample volumes were 25 μl with a final DMSO concentration of 0.8%. Assay Plates were read on PerkinElmer Envision plate readers with appropriate filters for Tamra [BODIPY-TMRI(1,3,4,5)P4]. Data obtained were used to calculate enzymatic activity and enzyme inhibition by inhibitor compounds.

SMILES strings stand for the structures.

PI3 Kinase γ, sequence (P48736 whole entry): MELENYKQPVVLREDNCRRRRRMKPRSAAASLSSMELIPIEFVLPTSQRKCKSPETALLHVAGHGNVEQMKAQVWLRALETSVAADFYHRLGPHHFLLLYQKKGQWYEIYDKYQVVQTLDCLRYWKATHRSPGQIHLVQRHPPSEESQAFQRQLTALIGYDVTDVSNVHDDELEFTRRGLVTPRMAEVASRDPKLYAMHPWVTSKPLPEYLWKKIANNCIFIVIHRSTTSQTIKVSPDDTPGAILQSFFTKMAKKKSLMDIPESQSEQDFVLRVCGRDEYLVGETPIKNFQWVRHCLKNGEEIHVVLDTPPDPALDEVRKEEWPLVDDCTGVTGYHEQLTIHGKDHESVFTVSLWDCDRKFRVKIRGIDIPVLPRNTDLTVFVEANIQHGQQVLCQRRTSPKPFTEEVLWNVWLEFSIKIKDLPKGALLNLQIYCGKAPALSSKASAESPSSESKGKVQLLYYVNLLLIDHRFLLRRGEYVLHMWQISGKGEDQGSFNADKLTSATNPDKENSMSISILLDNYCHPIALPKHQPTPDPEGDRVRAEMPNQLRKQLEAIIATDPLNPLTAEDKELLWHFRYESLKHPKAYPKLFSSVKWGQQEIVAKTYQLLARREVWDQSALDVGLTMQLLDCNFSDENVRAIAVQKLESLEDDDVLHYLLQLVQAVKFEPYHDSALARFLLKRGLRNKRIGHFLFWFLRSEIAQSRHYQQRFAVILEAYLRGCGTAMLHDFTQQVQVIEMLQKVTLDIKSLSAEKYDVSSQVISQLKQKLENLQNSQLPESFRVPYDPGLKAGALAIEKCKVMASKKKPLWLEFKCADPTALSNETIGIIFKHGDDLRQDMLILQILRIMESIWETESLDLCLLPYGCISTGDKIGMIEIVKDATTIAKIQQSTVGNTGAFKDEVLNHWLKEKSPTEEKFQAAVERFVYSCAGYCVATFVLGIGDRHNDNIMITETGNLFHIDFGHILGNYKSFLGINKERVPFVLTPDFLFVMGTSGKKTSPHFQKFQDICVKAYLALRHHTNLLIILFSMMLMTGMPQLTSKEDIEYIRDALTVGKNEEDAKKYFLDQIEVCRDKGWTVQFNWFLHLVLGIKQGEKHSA

`CN(C)CCNC(=O)Nc1ccc(-c2nc(N3CCOCC3)c3nnn(C4CCN(C(=O)OC(C)(C)C)CC4)c3n2)cc1` [Example 151, tert-butyl 4-(5-(4-(3-(2-(dimethylamino)ethyl)ureido)phenyl)-7-morpholino-3H-[1,2,3]triazolo[4,5-d]pyrimidin-3-yl)piperidine-1-carboxylate]: the figures for the IC50 in assay [1] and in assay [2] were 0.748 µM and 0.295 µM, respectively.

Consider `O=C(O)Cn1nnc2c(N3CCOCC3)nc(-c3cccc(CO)c3)nc21` [Example 240, {5-[3-(hydroxymethyl)phenyl]-7-morpholin-4-yl-3H-[1,2,3]triazolo[4,5-d]pyrimidin-3-yl}acetic acid], for which the IC50 is 1.7 µM in assay [1] and 0.658 µM in assay [2].

For `CC(C)(C)OC(=O)N1CCC(n2nnc3c(N4CCOCC4)nc(-c4ccc(NC(=O)Nc5ccncc5)cc4)nc32)CC1` [Example 166, tert-butyl 4-(7-morpholin-4-yl-5-{4-[(pyridin-4-ylcarbamoyl)amino]phenyl}-3H-[1,2,3]triazolo[4,5-d]pyrimidin-3-yl)piperidine-1-carboxylate], the values for the IC50 in assay [1] and in assay [2] were 0.494 µM and 0.0365 µM, respectively.

For the compound `CCNC(=O)c1ccc(Cn2nnc3c(N4CCOCC4)nc(-c4cccc(O)c4)nc32)cc1` [Example 219, N-ethyl-4-{[5-(3-hydroxyphenyl)-7-morpholin-4-yl-3H-[1,2,3]triazolo[4,5-d]pyrimidin-3-yl]methyl}benzamide], the IC50 in assay [1] was 1.84 µM; in assay [2], 0.26 µM.

Turning to `Oc1cncc(-c2nc(N3CCOCC3)c3nnn(C4CCN(Cc5ccc[nH]5)CC4)c3n2)c1` [Example 29, 5-{7-morpholin-4-yl-3-[1-(1H-pyrrol-2-ylmethyl)piperidin-4-yl]-3H-[1,2,3]triazolo[4,5-d]pyrimidin-5-yl}pyridin-3-ol], the IC50 in assay [1] amounted to 3.11 µM; in assay [2], 1.14 µM.

As to `CCn1nnc2c(N3CCOCC3)nc(-c3ccc(NC(=O)Nc4ccc(C(=O)N5CCC(N6CCOCC6)CC5)cc4)cc3)nc21` [Example 48, 1-[4-(3-ethyl-7-morpholin-4-yl-3H-[1,2,3]triazolo[4,5-d]pyrimidin-5-yl)phenyl]-3-{4-[(4-morpholin-4-ylpiperidin-1-yl)carbonyl]phenyl}urea], the half-inhibitory concentration (IC50) in assay [1] amounted to 0.031 µM; in assay [2] it was 0.0055 µM.

With `CC(C)(C)OC(=O)N1CC(n2nnc3c(N4CCOCC4)nc(-c4ccc(NC(=O)Nc5cccnc5)cc4)nc32)C1` [Example 130, tert-butyl 3-(7-morpholin-4-yl-5-{4-[(pyridin-3-ylcarbamoyl)amino]phenyl}-3H-[1,2,3]triazolo[4,5-d]pyrimidin-3-yl)azetidine-1-carboxylate], the IC50 in assay [1] turned out to be 0.165 µM; in assay [2] it was 0.034 µM.

In the case of `CN(C)CCNC(=O)Nc1ccc(-c2nc(N3CCOCC3)c3nnn(C4CCN(Cc5ccc(F)cc5)CC4)c3n2)cc1` [Example 153, 1-(2-(dimethylamino)ethyl)-3-(4-(3-(1-(4-fluorobenzyl)piperidin-4-yl)-7-morpholino-3H-[1,2,3]triazolo[4,5-d]pyrimidin-5-yl)phenyl)urea], the IC50 in assay [1] stood at 0.176 µM; in assay [2] it was 0.146 µM.

Take `CC(C)n1nnc2c(N3CCOCC3)nc(-c3ccc(NC(=O)Nc4ccncc4)cc3)nc21` [Example 82, 1-[4-(3-isopropyl-7-morpholin-4-yl-3H-[1,2,3]triazolo[4,5-d]pyrimidin-5-yl)-phenyl]-3-pyridin-4-yl-urea]: the figures for the IC50 in assay [1] and in assay [2] were 0.0215 µM and 0.005 µM, respectively.

In the case of `CCN1CCCC1Cn1nnc2c(N3CCOCC3)nc(-c3cccc(O)c3)nc21` (stereo not shown) [Example 172, 3-{3-[(1-ethylpyrrolidin-2-yl)methyl]-7-morpholin-4-yl-3H-[1,2,3]triazolo[4,5-d]pyrimidin-5-yl}phenol], the 50% inhibitory concentration (IC50) in assay [1] came to 1.23 µM; in assay [2], 0.204 µM.

`Oc1cccc(-c2nc(N3CCOCC3)c3nnn(CCN4CCN(Cc5cccnc5)CC4)c3n2)c1` [Example 111, 3-(7-morpholin-4-yl-3-{2-[4-(pyridin-3-ylmethyl)piperazin-1-yl]ethyl}-3H-[1,2,3]triazolo[4,5-d]pyrimidin-5-yl)phenol]: the IC50 was 2.29 µM in assay [1] and 0.439 µM in assay [2].

One may read the IC50 as the concentration at which inhibition is half-maximal.
